Like-named read-outs stand apart in the source and are kept apart here.
Columns and labels:
[1] = test system: BGC-823 (human gastric cancer cell line); test: in vitro growth inhibition of tumor cells, BGC-823; assay type: cell-based; conditions: for Inhibition effects on in vitro growth: 48 hours
Method: (§1) The tumor strains are A-549 (human lung adenocarcinoma cell line), BGC-823 (human gastric cancer cell line), C-6 (rat neurogliocytoma cell line), Hep G2 (human hepatic cancer cell line), HL-60 (human leukemia cell line), K-562 (human erythremia cell line) and Hela (human cervical cancer cell line). […] The drug was prepared as a stock solution of 10^−2 M by using physiological saline and diluted into the test solution in a gradient composed of five concentrations: C1 5×10^−5 M, C2 10^−5 M, C3 10^−6 M, C4 10^−7 M and C5 10^−8 M.
(§2) Experimental method: different tumor cells in exponential growth phase are inoculated in 96-well plates in a certain amount and the selected samples are added after the cells are cultured for 24 hours (suspension cells can be directly added after being inoculated), after the cells are incubated at 37° C. and 5% CO2 for another 48 hours, […] is added for further incubation for another 4 hours, and finally the samples are examined on a microplate reader after dissolving with DMSO.

[2] = test system: Hep G2 (human hepatic cancer cell line); test: in vitro growth inhibition of tumor cells, Hep G2; assay type: cell-based; conditions: HepG2, 48 hours
Method: as §1, §2

[3] = test system: Hela (human cervical cancer cell line); test: in vitro growth inhibition of tumor cells, Hela; assay type: cell-based; conditions: for Inhibition effects on in vitro growth: hela, 48 hours
Method: as §1, §2

[4] = test system: P-388 leukemia; conditions: P-388 leukemia cell line; cited from earlier work
[5] = test system: transplanted tumor S180; conditions: S180 mice; for Body weight After administration / Tumor weight / Tumor-inhibition rate: once every two days, four times
Method: (§3) Experimental groups: three dosage groups were set up for DPT, 10, 5 and 2.5 mg/kg; the blank control group: cyclophosphamide (CTX) group, Etoposide group 20 mg/kg.
(§4) Administration route: injection via tail vein, it is administered in a dosage of 0.4 ml/20 g body weight. Administration period: the drug is administrated 24 hours after the inoculation, once every two days for four times in total.
(§5) Experimental methods: 60 ICR mice with standard weight of from 18 to 22 g are inoculated with S-180 or Heps solid tumor according to the test method for transplanted tumors, hypodermic inoculation with 0.2 ml is carried out in the armpit in the anterior limb of every mouse. The body weight is determined 24 hours after the inoculation and they are randomly divided into six groups: the blank control group, the CTX group (20 mg/kg), the Etoposide group (20 mg/kg), the DPT group (10, 5 and 2.5 mg/Kg). The drug is administrated 24 hours after the inoculation once for every two days for 4 times, and tumor-bearing mice are killed on the next after drug withdrawal and their body weights are measured, and the separated tumor mess is weighed, and all of the data are subjected to statistical analyses (t-test).

[6] = test system: transplanted tumor Heps; conditions: Heps mice; for Body weight After administration / Tumor inhibition rate / Tumor weight: once every two days, four times
Method: as §3, §4, §5

With COc1cc([C@@H]2c3cc4c(cc3C[C@H]3COC(=O)[C@@H]32)OCO4)cc(OC)c1OC [DPT, Deoxypodophyllotoxin] the “Inhibition effects on in vitro growth” value ([1]; 5 × 10^−5M) was 52.54%, the “Inhibition effects on in vitro growth” value ([1]; 10^−5M) was 35.31% and the “inhibition effects compared with Etoposide” value ([1]; 10^−5 to 10^−8 M) was “significant better than that of Etoposide”. The “Inhibition effects on in vitro growth” value ([1]; 10^−6M) was 33.2%, the “Inhibition effects on in vitro growth” value ([1]; 10^−7M) was 30.35% and the “Inhibition effects on in vitro growth” value ([1]; 10^−8M) was 24.49%. The “Inhibition effects on in vitro growth” value ([2]; 5 × 10^−5M) was 52.98%, the “Inhibition effects on in vitro growth” value ([2]; 10^−5M) was 31.85% and the “Inhibition effects on in vitro growth” value ([2]; 10^−6M) was 22.49%. For the same molecule, the “Inhibition effects on in vitro growth” value ([2]; 10^−7M) was 24.36%, the “Inhibition effects on in vitro growth” value ([2]; 10^−8M) was 24.32% and the “inhibition effects compared with Etoposide” value ([3]; Hela, 10^−5 to 10^−8 M) was “significant better than that of Etoposide”. For the same molecule, the “Inhibition effects on in vitro growth” value ([3]; 5 × 10^−5M) was 62.68%, the “Inhibition effects on in vitro growth” value ([3]; 10^−5M) was 49.89% and the “Inhibition effects on in vitro growth” value ([3]; 10^−6M) was 47.9%. The “Inhibition effects on in vitro growth” value ([3]; 10^−7M) was 46.57%, the “Inhibition effects on in vitro growth” value ([3]; 10^−8M) was 42.9% and the “in vitro inhibition effects” value [4] was “in vitro inhibition effects”. For the same molecule, the “Body weight Before administration” value ([5]; 2.5 mg/kg iv group) was 19.70 ± 1.16 g, the “Body weight After administration” value ([5]; 2.5 mg/kg iv) was 24.90 ± 2.47 g and the Tumor weight ([5]; 2.5 mg/kg iv) was 1.41 ± 0.30 g. For the same molecule, the Tumor-inhibition rate ([5]; 2.5 mg/kg iv) was 23.44%, the “Body weight Before administration” value ([5]; 5 mg/kg iv group) was 19.00 ± 0.94 g and the “Body weight After administration” value ([5]; 5 mg/kg iv) was 22.50 ± 2.55 g. For the same molecule, the Tumor weight ([5]; 5 mg/kg iv) was 1.08 ± 0.26 g, the Tumor-inhibition rate ([5]; 5 mg/kg iv) was 41.67% and the “Body weight Before administration” value ([5]; 10 mg/kg iv group) was 19.40 ± 1.71 g. The “Body weight After administration” value ([5]; 10 mg/kg iv) was 22.50 ± 2.07 g, the Tumor weight ([5]; 10 mg/kg iv) was 0.84 ± 0.27 g and the Tumor-inhibition rate ([5]; 10 mg/kg iv) was 54.53%. The “Body weight Before administration” value ([6]; 2.5 mg/kg iv group) was 20.20 ± 1.48 g, the “Body weight After administration” value ([6]; 2.5 mg/kg iv) was 24.50 ± 2.22 g and the Tumor inhibition rate ([6]; 2.5 mg/kg iv) was 32.10%. The Tumor weight ([6]; 2.5 mg/kg iv) was 1.34 ± 0.29 g, the “Body weight Before administration” value ([6]; 5 mg/kg iv group) was 20.80 ± 1.40 g and the “Body weight After administration” value ([6]; 5 mg/kg iv) was 24.00 ± 3.46 g. The Tumor inhibition rate ([6]; 5 mg/kg iv) was 42.27%, the Tumor weight ([6]; 5 mg/kg iv) was 1.14 ± 0.15 g and the “Body weight Before administration” value ([6]; 10 mg/kg iv group) was 21.40 ± 0.84 g. The “Body weight After administration” value ([6]; 10 mg/kg iv) was 22.90 ± 2.73 g, the Tumor inhibition rate ([6]; 10 mg/kg iv) was 52.09% and the Tumor weight ([6]; 10 mg/kg iv) was 0.94 ± 0.32 g.

— patent US8859527B2 (priority 2009, dated 2014)
